Results: ChEMBL document CHEMBL3526121, “Pharmacokinetics, bioavailability, tissue distribution, excretion, and metabolite identification of methoxyflavones in Kaempferia parviflora extract in rats” (Drug Metab Dispos, 2012)

Assays:
[1] = Cmax in Wistar rat liver at 750 mg/kg, po by LC-MS/MS analysis; format: ADME, organism-based; design: dose 750 mg/kg, route oral
[2] = Cmax in Wistar rat testes at 750 mg/kg, po by LC-MS/MS analysis; format: ADME, organism-based, Testis; design: dose 750 mg/kg, route oral
[3] = Cmax in Wistar rat at 250 mg/kg, po by HPLC analysis; format: ADME, organism-based; design: dose 250 mg/kg, route oral; settings: in vivo
[4] = Tmax in Wistar rat lung at 750 mg/kg, po by LC-MS/MS analysis; format: ADME, organism-based; design: dose 750 mg/kg, route oral
[5] = Drug excretion in Wistar rat feces at 750 mg/kg, po after 12 hrs by HPLC-UV analysis; format: ADME, organism-based; design: dose 750 mg/kg, route oral; settings: in vivo
[6] = Half life in Wistar rat at 250 mg/kg, po by HPLC analysis; format: ADME, organism-based; design: dose 250 mg/kg, route oral; settings: in vivo
[7] = Drug metabolism in Wistar rat assessed as excretion of 3,5-dihydroxy-2-(3-hydroxy-4-methoxyphenyl)-7-methoxy-4H-chromen-4-one in feces at 750 mg/kg, po by LC-MS and LC-MS/MS analysis; format: ADME, organism-based; design: dose 750 mg/kg, route oral; settings: in vivo
[8] = AUC (0.083 to 4 hrs) in Wistar rat testes at 750 mg/kg, po by LC-MS/MS analysis; format: ADME, organism-based, Testis; design: time 0.083-4 hr, dose 750 mg/kg, route oral; settings: in vivo
[9] = Drug excretion in Wistar rat feces at 750 mg/kg, po after 18 to 24 hrs by HPLC-UV analysis; format: ADME, organism-based; design: dose 750 mg/kg, route oral; settings: in vivo
[10] = Tmax in Wistar rat kidney at 750 mg/kg, po by LC-MS/MS analysis; format: ADME, organism-based; design: dose 750 mg/kg, route oral
[11] = Cmax in Wistar rat kidney at 750 mg/kg, po by LC-MS/MS analysis; format: ADME, organism-based; design: dose 750 mg/kg, route oral
Rattus norvegicus [12] = test: Absorption rate constant in Wistar rat at 250 mg/kg, po by HPLC analysis; format: ADME, organism-based; design: dose 250 mg/kg, route oral; settings: in vivo
[13] = Clearance in Wistar rat at 250 mg/kg, iv by HPLC analysis; format: ADME, organism-based; design: dose 250 mg/kg, route intravenous; settings: in vivo
[14] = Elimination rate constant in Wistar rat at 250 mg/kg, po by HPLC analysis; format: ADME, organism-based; design: dose 250 mg/kg, route oral; settings: in vivo, read-out: Ke (converted)
Brain = test: AUC (0.083 to 4 hrs) in Wistar rat brain at 750 mg/kg, po by LC-MS/MS analysis; format: ADME, organism-based; design: time 0.083-4 hr, dose 750 mg/kg, route oral; settings: in vivo
[15] = AUC in Wistar rat at 250 mg/kg, po by HPLC analysis; format: ADME, organism-based; design: dose 250 mg/kg, route oral; settings: plasma
[16] = Clearance in Wistar rat at 250 mg/kg, po by HPLC analysis; format: ADME, organism-based; design: dose 250 mg/kg, route oral; settings: in vivo
[17] = Drug metabolism in Wistar rat assessed as excretion of 2-(3-hydroxy-4-methoxyphenyl)-3,5,7-trimethoxy-4H-chromen-4-one in urine at 750 mg/kg, po by LC-MS and LC-MS/MS analysis; format: ADME, organism-based; design: dose 750 mg/kg, route oral; settings: in vivo
Rattus norvegicus [18] = test: Half life in Wistar rat at 250 mg/kg, iv by HPLC analysis; format: ADME, organism-based; design: dose 250 mg/kg, route intravenous; settings: in vivo
Lung = test: AUC (0.083 to 4 hrs) in Wistar rat lung at 750 mg/kg, po by LC-MS/MS analysis; format: ADME, organism-based; design: time upper 4 hr, time lower 0.083 hr, dose 750 mg/kg, route oral; settings: in vivo
[19] = AUC in Wistar rat at 250 mg/kg, iv by HPLC analysis; format: ADME, organism-based; design: dose 250 mg/kg, route intravenous; settings: plasma
[20] = Drug excretion in Wistar rat feces at 750 mg/kg, po after up to 72 hrs by HPLC-UV analysis; format: ADME, organism-based; design: dose 750 mg/kg, route oral; settings: faeces, read-out: Drug excretion
[21] = Drug excretion in Wistar rat urine at 750 mg/kg, po after 12 hrs by HPLC-UV analysis; format: ADME, organism-based; design: dose 750 mg/kg, route oral; settings: in vivo
[22] = Drug metabolism in Wistar rat assessed as excretion of 5-hydroxy-2-(3-hydroxy-4-methoxyphenyl)-3,7-dimethoxy-4H-chromen-4-one in urine/feces at 750 mg/kg, po by LC-MS and LC-MS/MS analysis; format: ADME, organism-based; design: dose 750 mg/kg, route oral; settings: in vivo
[23] = Drug excretion in Wistar rat urine at 750 mg/kg, po after up to 72 hrs by HPLC-UV analysis; format: ADME, organism-based; design: dose 750 mg/kg, route oral; settings: read-out: Drug excretion
Rattus norvegicus [24] = test: Volume of distribution in Wistar rat at 250 mg/kg, po by HPLC analysis; format: ADME, organism-based; design: dose 250 mg/kg, route oral; settings: in vivo
[25] = Tmax in Wistar rat at 250 mg/kg, po by HPLC analysis; format: ADME, organism-based; design: dose 250 mg/kg, route oral; settings: in vivo
Kidney = test: AUC (0.083 to 4 hrs) in Wistar rat kidney at 750 mg/kg, po by LC-MS/MS analysis; format: ADME, organism-based; design: time 0.083-4 hr, dose 750 mg/kg, route oral; settings: in vivo
[26] = Tmax in Wistar rat liver at 750 mg/kg, po by LC-MS/MS analysis; format: ADME, organism-based; design: dose 750 mg/kg, route oral
[27] = Cmax in Wistar rat brain at 750 mg/kg, po by LC-MS/MS analysis; format: ADME, organism-based; design: dose 750 mg/kg, route oral
Rattus norvegicus [28] = test: Elimination rate constant in Wistar rat at 250 mg/kg, iv by HPLC analysis; format: ADME, organism-based; design: dose 250 mg/kg, route intravenous; settings: in vivo
[29] = Drug excretion in Wistar rat urine at 750 mg/kg, po after 24 to 72 hrs by HPLC-UV analysis; format: ADME, organism-based; design: dose 750 mg/kg, route oral; settings: in vivo
Liver = test: AUC (0.083 to 4 hrs) in Wistar rat liver at 750 mg/kg, po by LC-MS/MS analysis; format: ADME, organism-based; design: time 0.083-4 hr, dose 750 mg/kg, route oral; settings: in vivo
[30] = Cmax in Wistar rat lung at 750 mg/kg, po by LC-MS/MS analysis; format: ADME, organism-based; design: dose 750 mg/kg, route oral
[31] = Tmax in Wistar rat testes at 750 mg/kg, po by LC-MS/MS analysis; format: ADME, organism-based, Testis; design: dose 750 mg/kg, route oral
[32] = Tmax in Wistar rat brain at 750 mg/kg, po by LC-MS/MS analysis; format: ADME, organism-based; design: dose 750 mg/kg, route oral
[33] = Oral bioavailability in Wistar rat at 250 mg/kg by HPLC analysis; format: ADME, organism-based; settings: in vivo

Which results are given for COc1cc(OC)c2c(=O)c(OC)c(-c3ccc(OC)c(OC)c3)oc2c1?
Cmax [1]: 3100 ng/g; Cmax [2]: 500 ng/g; Cmax [3]: 550 ng/mL; Tmax [4]: 4.8 min; Drug excretion [5]: Active; half-life [6]: 187 min; Drug metabolism [7]: metabolite_detected; AUC [8]: 1.01 µg·h/g; Drug excretion [9]: Active; Tmax [10]: 3.43 h; Cmax [11]: 1000 ng/g; ka (Rattus norvegicus [12]): 1.23 h⁻¹; clearance [13]: 0.359 mL/min; k el [14]: 7.78e-05 s⁻¹; AUC (Brain): 0.76 µg·h/g; AUC [15]: 3650 ng·h/mL; CL/F [16]: 10.4 mL/min; Drug metabolism [17]: metabolite_detected; t1/2 (Rattus norvegicus [18]): 2.36 h; AUC (Lung): 1.6 µg·h/g; AUC [19]: 76800 ng·h/mL; dose excreted at 72 h [20]: 0.79%; Drug excretion [21]: Active; Drug metabolism [22]: metabolite_detected; dose excreted at 72 h [23]: 1.06%; Vd (Rattus norvegicus [24]): 2637.13 mL; Tmax [25]: 1.71 h; AUC (Kidney): 2.03 µg·h/g; Tmax [26]: 3.43 h; Cmax [27]: 260 ng/g; Ke (Rattus norvegicus [28]): 0.61 h⁻¹; Drug excretion [29]: Active; AUC (Liver): 9.07 µg·h/g; Cmax [30]: 2230 ng/g; Tmax [31]: 2.36 h; Tmax [32]: 3.14 h; bioavailability [33]: 3.32%
